Assay results from patent publication US11958835B1, “6-(6-bromo-2-oxo-2H-chromen-3-yl)-4-(4-chlorophenyl)-2-alkoxynicotinonitrile as antimicrobial agents” (KING FAISAL UNIVERSITY, priority 2023, dated 2024).

Tested on: Aspergillus flavus
Experiment: agar plate disc-diffusion, antifungal, Aspergillus flavus
Type: cell-based
Details: A = concentration of comp. = 10,000 μL; DMSO control zone subtracted
Experimental: (§1) The agar plate disc-diffusion method was applied. Sterilized filter papers (6 mm in diameter) were wetted with 10 μL of a solution of 6-(6-bromo-2-oxo-2H-chromen-3-yl)-4-(4-chlorophenyl)-2-ethoxynicotinonitrile (1) and 6-(6-bromo-2-oxo-2H-chromen-3-yl)-4-(4-chlorophenyl)-2-methoxynicotinonitrile (2) to be tested, containing […], and the discs were allowed to air dry. The discs were then placed onto the surface of agar plates (nutrient agar for bacteria and Sabouraud's dextrose agar for fungi) seeded with the test organism. Each plate contained 15 mL of the agar medium, previously seeded with 0.2 mL of the broth culture of each organism pregrown for 18 hours. The plates were incubated at 37° C. for 48 hours, and 72 hours for fungi. The inhibition zones were measured in millimeters. Discs impregnated with DMSO were used as a control, and its inhibition zone was subtracted from the tested compound actual inhibition zone.
(§2) Their antibacterial screened against gram positive bacteria namely Bacillus cereus and Staphylococcus aureus and gram-negative bacterial strains namely Pseudomonas aeruginosa and Escherichia coli, while their antifungal activity screened against Aspergillus flavus and Chrysosporium keratinophilum as shown in Tables 1 and 2 using ciprofloxacin as a reference.

SMILES | inhibition zone, Aspergillus flavus, A [millimeters]
CCOc1nc(-c2cc3cc(Br)ccc3oc2=O)cc(-c2ccc(Cl)cc2)c1C#N [Compound 1, 6-(6-bromo-2-oxo-2H-chromen-3-yl)-4-(4-chlorophenyl)-2-ethoxynicotinonitrile] | 20
COc1nc(-c2cc3cc(Br)ccc3oc2=O)cc(-c2ccc(Cl)cc2)c1C#N [Compound 2, 6-(6-bromo-2-oxo-2H-chromen-3-yl)-4-(4-chlorophenyl)-2-methoxynicotinonitrile] | 19

Same assay, conditions: B = concentration of comp. = 30.000 μL; DMSO control zone subtracted

SMILES | inhibition zone, Aspergillus flavus, B [millimeters]
CCOc1nc(-c2cc3cc(Br)ccc3oc2=O)cc(-c2ccc(Cl)cc2)c1C#N [Compound 1, 6-(6-bromo-2-oxo-2H-chromen-3-yl)-4-(4-chlorophenyl)-2-ethoxynicotinonitrile] | 25
COc1nc(-c2cc3cc(Br)ccc3oc2=O)cc(-c2ccc(Cl)cc2)c1C#N [Compound 2, 6-(6-bromo-2-oxo-2H-chromen-3-yl)-4-(4-chlorophenyl)-2-methoxynicotinonitrile] | 23

Same assay, conditions: C = concentration of comp. = 50,000 μL; DMSO control zone subtracted

SMILES | inhibition zone, Aspergillus flavus, C [millimeters]
CCOc1nc(-c2cc3cc(Br)ccc3oc2=O)cc(-c2ccc(Cl)cc2)c1C#N [Compound 1, 6-(6-bromo-2-oxo-2H-chromen-3-yl)-4-(4-chlorophenyl)-2-ethoxynicotinonitrile] | 34
COc1nc(-c2cc3cc(Br)ccc3oc2=O)cc(-c2ccc(Cl)cc2)c1C#N [Compound 2, 6-(6-bromo-2-oxo-2H-chromen-3-yl)-4-(4-chlorophenyl)-2-methoxynicotinonitrile] | 33

Tested on: Escherichia coli
Experiment: agar plate disc-diffusion, antibacterial, Escherichia coli
Type: cell-based
Details: A = concentration of comp. = 10,000 μL; DMSO control zone subtracted
Experimental: as §1, §2

SMILES | inhibition zone, Escherichia coli, A [millimeters]
CCOc1nc(-c2cc3cc(Br)ccc3oc2=O)cc(-c2ccc(Cl)cc2)c1C#N [Compound 1, 6-(6-bromo-2-oxo-2H-chromen-3-yl)-4-(4-chlorophenyl)-2-ethoxynicotinonitrile] | 27
COc1nc(-c2cc3cc(Br)ccc3oc2=O)cc(-c2ccc(Cl)cc2)c1C#N [Compound 2, 6-(6-bromo-2-oxo-2H-chromen-3-yl)-4-(4-chlorophenyl)-2-methoxynicotinonitrile] | 27

Same assay, conditions: B = concentration of comp. = 30.000 μL; DMSO control zone subtracted

SMILES | inhibition zone, Escherichia coli, B [millimeters]
CCOc1nc(-c2cc3cc(Br)ccc3oc2=O)cc(-c2ccc(Cl)cc2)c1C#N [Compound 1, 6-(6-bromo-2-oxo-2H-chromen-3-yl)-4-(4-chlorophenyl)-2-ethoxynicotinonitrile] | 37
COc1nc(-c2cc3cc(Br)ccc3oc2=O)cc(-c2ccc(Cl)cc2)c1C#N [Compound 2, 6-(6-bromo-2-oxo-2H-chromen-3-yl)-4-(4-chlorophenyl)-2-methoxynicotinonitrile] | 34

Same assay, conditions: C = concentration of comp. = 50,000 μL; DMSO control zone subtracted

SMILES | inhibition zone, Escherichia coli, C [millimeters]
CCOc1nc(-c2cc3cc(Br)ccc3oc2=O)cc(-c2ccc(Cl)cc2)c1C#N [Compound 1, 6-(6-bromo-2-oxo-2H-chromen-3-yl)-4-(4-chlorophenyl)-2-ethoxynicotinonitrile] | 45
COc1nc(-c2cc3cc(Br)ccc3oc2=O)cc(-c2ccc(Cl)cc2)c1C#N [Compound 2, 6-(6-bromo-2-oxo-2H-chromen-3-yl)-4-(4-chlorophenyl)-2-methoxynicotinonitrile] | 48

Tested on: Chrysosporium keratinophilum
Experiment: agar plate disc-diffusion, antifungal, Chrysosporium keratinophilum
Type: cell-based
Details: A = concentration of comp. = 10,000 μL; DMSO control zone subtracted
Experimental: as §1, §2

SMILES | inhibition zone, Chrysosporiam keratinophilum, A [millimeters]
CCOc1nc(-c2cc3cc(Br)ccc3oc2=O)cc(-c2ccc(Cl)cc2)c1C#N [Compound 1, 6-(6-bromo-2-oxo-2H-chromen-3-yl)-4-(4-chlorophenyl)-2-ethoxynicotinonitrile] | 24
COc1nc(-c2cc3cc(Br)ccc3oc2=O)cc(-c2ccc(Cl)cc2)c1C#N [Compound 2, 6-(6-bromo-2-oxo-2H-chromen-3-yl)-4-(4-chlorophenyl)-2-methoxynicotinonitrile] | 25

Same assay, conditions: B = concentration of comp. = 30.000 μL; DMSO control zone subtracted

SMILES | inhibition zone, Chrysosporiam keratinophilum, B [millimeters]
CCOc1nc(-c2cc3cc(Br)ccc3oc2=O)cc(-c2ccc(Cl)cc2)c1C#N [Compound 1, 6-(6-bromo-2-oxo-2H-chromen-3-yl)-4-(4-chlorophenyl)-2-ethoxynicotinonitrile] | 27
COc1nc(-c2cc3cc(Br)ccc3oc2=O)cc(-c2ccc(Cl)cc2)c1C#N [Compound 2, 6-(6-bromo-2-oxo-2H-chromen-3-yl)-4-(4-chlorophenyl)-2-methoxynicotinonitrile] | 29

Same assay, conditions: C = concentration of comp. = 50,000 μL; DMSO control zone subtracted

SMILES | inhibition zone, Chrysosporiam keratinophilum, C [millimeters]
CCOc1nc(-c2cc3cc(Br)ccc3oc2=O)cc(-c2ccc(Cl)cc2)c1C#N [Compound 1, 6-(6-bromo-2-oxo-2H-chromen-3-yl)-4-(4-chlorophenyl)-2-ethoxynicotinonitrile] | 39
COc1nc(-c2cc3cc(Br)ccc3oc2=O)cc(-c2ccc(Cl)cc2)c1C#N [Compound 2, 6-(6-bromo-2-oxo-2H-chromen-3-yl)-4-(4-chlorophenyl)-2-methoxynicotinonitrile] | 40

Tested on: Pseudomonas aeruginosa
Experiment: agar plate disc-diffusion, antibacterial, Pseudomonas aeruginosa
Type: cell-based
Details: A = concentration of comp. = 10,000 μL; DMSO control zone subtracted
Experimental: as §1, §2

SMILES | inhibition zone, Pseudomonas aeruginosa, A [millimeters]
CCOc1nc(-c2cc3cc(Br)ccc3oc2=O)cc(-c2ccc(Cl)cc2)c1C#N [Compound 1, 6-(6-bromo-2-oxo-2H-chromen-3-yl)-4-(4-chlorophenyl)-2-ethoxynicotinonitrile] | 21
COc1nc(-c2cc3cc(Br)ccc3oc2=O)cc(-c2ccc(Cl)cc2)c1C#N [Compound 2, 6-(6-bromo-2-oxo-2H-chromen-3-yl)-4-(4-chlorophenyl)-2-methoxynicotinonitrile] | 25

Same assay, conditions: B = concentration of comp. = 30.000 μL; DMSO control zone subtracted

SMILES | inhibition zone, Pseudomonas aeruginosa, B [millimeters]
CCOc1nc(-c2cc3cc(Br)ccc3oc2=O)cc(-c2ccc(Cl)cc2)c1C#N [Compound 1, 6-(6-bromo-2-oxo-2H-chromen-3-yl)-4-(4-chlorophenyl)-2-ethoxynicotinonitrile] | 26
COc1nc(-c2cc3cc(Br)ccc3oc2=O)cc(-c2ccc(Cl)cc2)c1C#N [Compound 2, 6-(6-bromo-2-oxo-2H-chromen-3-yl)-4-(4-chlorophenyl)-2-methoxynicotinonitrile] | 31

Same assay, conditions: C = concentration of comp. = 50,000 μL; DMSO control zone subtracted

SMILES | inhibition zone, Pseudomonas aeruginosa, C [millimeters]
CCOc1nc(-c2cc3cc(Br)ccc3oc2=O)cc(-c2ccc(Cl)cc2)c1C#N [Compound 1, 6-(6-bromo-2-oxo-2H-chromen-3-yl)-4-(4-chlorophenyl)-2-ethoxynicotinonitrile] | 37
COc1nc(-c2cc3cc(Br)ccc3oc2=O)cc(-c2ccc(Cl)cc2)c1C#N [Compound 2, 6-(6-bromo-2-oxo-2H-chromen-3-yl)-4-(4-chlorophenyl)-2-methoxynicotinonitrile] | 35

Tested on: Staphylococcus aureus
Experiment: agar plate disc-diffusion, antibacterial, Staphylococcus aureus
Type: cell-based
Details: A = concentration of comp. = 10,000 μL; DMSO control zone subtracted
Experimental: as §1, §2

SMILES | inhibition zone, Staphylococcus aureus, A [millimeters]
CCOc1nc(-c2cc3cc(Br)ccc3oc2=O)cc(-c2ccc(Cl)cc2)c1C#N [Compound 1, 6-(6-bromo-2-oxo-2H-chromen-3-yl)-4-(4-chlorophenyl)-2-ethoxynicotinonitrile] | 18
COc1nc(-c2cc3cc(Br)ccc3oc2=O)cc(-c2ccc(Cl)cc2)c1C#N [Compound 2, 6-(6-bromo-2-oxo-2H-chromen-3-yl)-4-(4-chlorophenyl)-2-methoxynicotinonitrile] | 17

Same assay, conditions: B = concentration of comp. = 30.000 μL; DMSO control zone subtracted

SMILES | inhibition zone, Staphylococcus aureus, B [millimeters]
CCOc1nc(-c2cc3cc(Br)ccc3oc2=O)cc(-c2ccc(Cl)cc2)c1C#N [Compound 1, 6-(6-bromo-2-oxo-2H-chromen-3-yl)-4-(4-chlorophenyl)-2-ethoxynicotinonitrile] | 22
COc1nc(-c2cc3cc(Br)ccc3oc2=O)cc(-c2ccc(Cl)cc2)c1C#N [Compound 2, 6-(6-bromo-2-oxo-2H-chromen-3-yl)-4-(4-chlorophenyl)-2-methoxynicotinonitrile] | 23

Same assay, conditions: C = concentration of comp. = 50,000 μL; DMSO control zone subtracted

SMILES | inhibition zone, Staphylococcus aureus, C [millimeters]
CCOc1nc(-c2cc3cc(Br)ccc3oc2=O)cc(-c2ccc(Cl)cc2)c1C#N [Compound 1, 6-(6-bromo-2-oxo-2H-chromen-3-yl)-4-(4-chlorophenyl)-2-ethoxynicotinonitrile] | 27
COc1nc(-c2cc3cc(Br)ccc3oc2=O)cc(-c2ccc(Cl)cc2)c1C#N [Compound 2, 6-(6-bromo-2-oxo-2H-chromen-3-yl)-4-(4-chlorophenyl)-2-methoxynicotinonitrile] | 29

Tested on: Bacillus cereus
Experiment: agar plate disc-diffusion, antibacterial, Bacillus cereus
Type: cell-based
Details: A = concentration of comp. = 10,000 μL; DMSO control zone subtracted
Experimental: as §1, §2

SMILES | inhibition zone, Bacillus Cereus, A [millimeters]
CCOc1nc(-c2cc3cc(Br)ccc3oc2=O)cc(-c2ccc(Cl)cc2)c1C#N [Compound 1, 6-(6-bromo-2-oxo-2H-chromen-3-yl)-4-(4-chlorophenyl)-2-ethoxynicotinonitrile] | 15
COc1nc(-c2cc3cc(Br)ccc3oc2=O)cc(-c2ccc(Cl)cc2)c1C#N [Compound 2, 6-(6-bromo-2-oxo-2H-chromen-3-yl)-4-(4-chlorophenyl)-2-methoxynicotinonitrile] | 25

Same assay, conditions: B = concentration of comp. = 30.000 μL; DMSO control zone subtracted

SMILES | inhibition zone, Bacillus Cereus, B [millimeters]
CCOc1nc(-c2cc3cc(Br)ccc3oc2=O)cc(-c2ccc(Cl)cc2)c1C#N [Compound 1, 6-(6-bromo-2-oxo-2H-chromen-3-yl)-4-(4-chlorophenyl)-2-ethoxynicotinonitrile] | 20
COc1nc(-c2cc3cc(Br)ccc3oc2=O)cc(-c2ccc(Cl)cc2)c1C#N [Compound 2, 6-(6-bromo-2-oxo-2H-chromen-3-yl)-4-(4-chlorophenyl)-2-methoxynicotinonitrile] | 27

Same assay, conditions: C = concentration of comp. = 50,000 μL; DMSO control zone subtracted

SMILES | inhibition zone, Bacillus Cereus, C [millimeters]
CCOc1nc(-c2cc3cc(Br)ccc3oc2=O)cc(-c2ccc(Cl)cc2)c1C#N [Compound 1, 6-(6-bromo-2-oxo-2H-chromen-3-yl)-4-(4-chlorophenyl)-2-ethoxynicotinonitrile] | 29
COc1nc(-c2cc3cc(Br)ccc3oc2=O)cc(-c2ccc(Cl)cc2)c1C#N [Compound 2, 6-(6-bromo-2-oxo-2H-chromen-3-yl)-4-(4-chlorophenyl)-2-methoxynicotinonitrile] | 35
